Experimental data published in US5210193A, “Piperazine derivatives” (American Cyanamid Company, priority 1990, dated 1993).
≈ marks a conversion by molar mass, not a printed value.

What was measured:
Assay in all cases: in vitro antibacterial MIC, agar plate dilution
Assay type in all cases: cell-based
[1] = tested on: Escherichia coli VGH 84-19; settings: Escherichia coli, VGH8419, 18 h, 35° C., read-out: MIC
Summary of the method: (§1)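 Read-out is visible growth inhibition on Mueller-Hinton agar dilution plates incubated 18 hours at 35° C after inoculation of ~10^4 CFU (Steers device), with MIC reported in mcg/ml.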

[2] = tested on: Morganella morganii MOR 84-45; settings: Morganella morganii, MOR8445, 18 h, 35° C., read-out: MIC
Summary of the method: as §1

[3] = tested on: Escherichia coli CMC 84-11; settings: 18 hours, 35° C.
Summary of the method: as §1

[4] = tested on: Klebsiella pneumoniae CMC 84-31; settings: Klebsiella pneumoniae, CMC8431, 18 h, 35° C., read-out: MIC
Summary of the method: as §1

[5] = tested on: Proteus rettgeri IO 83-21; settings: Providencia rettgeri, IO8321, 18 h, 35° C., read-out: MIC
Summary of the method: as §1

[6] = tested on: Providencia stuarti CMC 83-3; settings: Providencia, CMC833, 18 h, 35° C., read-out: MIC
Summary of the method: as §1

[7] = tested on: Escherichia coli ATCC 25922; settings: Escherichia coli, ATCC25922, 18 h, 35° C., read-out: MIC
Summary of the method: as §1

[8] = tested on: Serratia marcescens MOR 84-41; settings: Serratia marcescens, MOR8441, 18 h, 35° C., read-out: MIC
Summary of the method: as §1

[9] = tested on: Staphylococcus aureus Smith; settings: Staphylococcus aureus, 18 h, 35° C., read-out: MIC
Summary of the method: as §1

[10] = tested on: Enterobacter cloacae K 84-10; settings: Enterobacter cloacae, K8410, 18 h, 35° C., read-out: MIC
Summary of the method: as §1

[11] = tested on: Staphylococcus aureus CMC 83-131; settings: Staphylococcus aureus, CMC83131, 18 h, 35° C., read-out: MIC
Summary of the method: as §1

[12] = tested on: Proteus rettgeri CMC 84-41; settings: 18 hours, 35° C.
Summary of the method: as §1

[13] = tested on: Staphylococcus aureus ATTC 29213; settings: 18 hours, 35° C.
Summary of the method: as §1

[14] = tested on: Morganella morganii VHG 84-12; settings: Morganella morganii, VHG8412, 18 h, Morganella morganii VHG 84-12 (VGH 84-12 for Example 131), 35° C., read-out: MIC
Summary of the method: as §1

[15] = tested on: Morganella morganii CMC 84-38; settings: 18 hours, 35° C.
Summary of the method: as §1

[16] = tested on: Pseudomonas aeruginosa LL-1244; settings: 18 hours, 35° C.
Summary of the method: as §1

[17] = tested on: Serratia marcescens K 84-18; settings: 18 hours, 35° C.
Summary of the method: as §1

[18] = tested on: Staphylococcus aureus VGH 84-47; settings: 18 hours, 35° C.
Summary of the method: as §1

[19] = tested on: Serratia marcescens IO 83-63; settings: IO8363, 18 hours, 35° C.
Summary of the method: as §1

[20] = tested on: Serratia marcescens CMC 83-74; settings: Serratia marcescens, CMC8374, 18 h, 35° C., read-out: MIC
Summary of the method: as §1

Citrobacter div. K 82-24 = settings: 18 hours, 35° C.
Summary of the method: as §1

[21] = tested on: Streptococcus faecalis VGH 84-69; settings: Enterococcus faecalis, VGH8469, 18 h, 35° C., read-out: MIC
Summary of the method: as §1

[22] = tested on: Enterobacter cloacae MOR 84-30; settings: Enterobacter cloacae, MOR8430, 18 h, 35° C., read-out: MIC
Summary of the method: as §1

[23] = tested on: Streptococcus faecalis VGH 84-65; settings: Enterococcus faecalis, VGH8465, 18 h, 35° C., read-out: MIC
Summary of the method: as §1

[24] = tested on: Streptococcus faecalis UCI 85-19; settings: 18 hours, 35° C.
Summary of the method: as §1

[25] = tested on: Escherichia coli CMC 84-50; settings: Escherichia coli, CMC8450, 18 h, 35° C., read-out: MIC
Summary of the method: as §1

[26] = tested on: Escherichia coli MOR 84-20; settings: Escherichia coli, MOR8420, 18 h, 35° C., read-out: MIC
Summary of the method: as §1

[27] = tested on: Serratia marcescens VGH 84-30; settings: 18 hours, 35° C.
Summary of the method: as §1

[28] = tested on: Klebsiella pneumoniae MOR 84-24; settings: Klebsiella pneumoniae, MOR8424, 18 h, 35° C., read-out: MIC
Summary of the method: as §1

[29] = tested on: Staphylococcus aureus VGH 84-45; settings: Staphylococcus aureus, VGH8445, 18 h, 35° C., read-out: MIC
Summary of the method: as §1

[30] = tested on: Morganella morganii CMC 84-37; settings: Morganella morganii, CMC8437, 18 h, 35° C., read-out: MIC
Summary of the method: as §1

[31] = tested on: Pseudomonas aeruginosa K 84-16; settings: Pseudomonas aeruginosa, K8416, 18 h, 35° C., read-out: MIC
Summary of the method: as §1

[32] = tested on: Streptococcus faecalis UCI 85-30; settings: Enterococcus faecalis, UCI8530, 18 h, 35° C., read-out: MIC
Summary of the method: as §1

[33] = tested on: Pseudomonas aeruginosa VGH 84-3; settings: Pseudomonas aeruginosa, VGH843, 18 h, 35° C., read-out: MIC
Summary of the method: as §1

[34] = tested on: Pseudomonas aeruginosa CMC 83-20; settings: 18 hours, 35° C.
Summary of the method: as §1

[35] = tested on: Klebsiella pneumoniae IO 83-5; settings: Klebsiella pneumoniae, IO835, 18 h, 35° C., read-out: MIC
Summary of the method: as §1

[36] = tested on: Enterobacter cloacae VGH 84-39; settings: Enterobacter cloacae, VGH8439, 18 h, 35° C., read-out: MIC
Summary of the method: as §1

Escherichia coli LL 311 = settings: 18 hours, 35° C.
Summary of the method: as §1

[37] = tested on: Pseudomonas aeruginosa VGH 84-4; settings: Pseudomonas aeruginosa, VGH844, 18 h, 35° C., read-out: MIC
Summary of the method: as §1

[38] = tested on: Streptococcus faecalis CMC 83-120; settings: Enterococcus faecalis, CMC83120, 18 h, 35° C., read-out: MIC
Summary of the method: as §1

[39] = tested on: Staphylococcus aureus K 82-26; settings: 18 hours, 35° C.
Summary of the method: as §1

**Q.** What does the source list for O=C(O)c1cn(C2CC2)c2cc(N3CCNC(C4CC4)C3)c(F)cc2c1=O (centres unmarked) [Example 96, 7-(3-Cyclopropyl-1-piperazinyl) -1-cyclopropyl-6-fluoro-1,4-dihydro-4-oxo-3-quinolinecarboxylic acid]?
**A.** MIC [1]: 0.008 µg/mL (≈ 0.0215 µM); MIC [2]: 0.008 µg/mL (≈ 0.0215 µM); MIC [3]: > 0.015 µg/mL; MIC [4]: 0.015 µg/mL (≈ 0.0404 µM); MIC [5]: 0.12 µg/mL (≈ 0.323 µM); MIC [6]: 2 µg/mL (≈ 5.38 µM); MIC [7]: 0.015 µg/mL (≈ 0.0404 µM); MIC [8]: 0.06 µg/mL (≈ 0.162 µM); MIC [9]: 0.06 µg/mL (≈ 0.162 µM); MIC [10]: 0.015 µg/mL (≈ 0.0404 µM); MIC [11]: 0.25 µg/mL (≈ 0.673 µM); MIC [12]: 0.03 µg/mL (≈ 0.0808 µM); MIC [13]: 0.25 µg/mL (≈ 0.673 µM); MIC [14]: 0.12 µg/mL (≈ 0.323 µM); MIC [15]: 0.3 µg/mL (≈ 0.808 µM); MIC [16]: 1 µg/mL (≈ 2.69 µM); MIC [17]: > 0.015 µg/mL; MIC [18]: 0.06 µg/mL (≈ 0.162 µM); MIC [19]: 0.25 µg/mL (≈ 0.673 µM); MIC [20]: 4 µg/mL (≈ 10.8 µM); MIC (Citrobacter div. K 82-24): 0.008 µg/mL (≈ 0.0215 µM); MIC [21]: 1 µg/mL (≈ 2.69 µM); MIC [22]: 0.25 µg/mL (≈ 0.673 µM); MIC [23]: 0.5 µg/mL (≈ 1.35 µM); MIC [24]: 0.5 µg/mL (≈ 1.35 µM); MIC [25]: 0.015 µg/mL (≈ 0.0404 µM); MIC [26]: 0.008 µg/mL (≈ 0.0215 µM); MIC [27]: 1 µg/mL (≈ 2.69 µM); MIC [28]: 0.03 µg/mL (≈ 0.0808 µM); MIC [29]: 0.06 µg/mL (≈ 0.162 µM); MIC [30]: 0.03 µg/mL (≈ 0.0808 µM); MIC [31]: 2 µg/mL (≈ 5.38 µM); MIC [32]: 2 µg/mL (≈ 5.38 µM); MIC [33]: 4 µg/mL (≈ 10.8 µM); MIC [34]: 1 µg/mL (≈ 2.69 µM); MIC [35]: 0.03 µg/mL (≈ 0.0808 µM); MIC [36]: 0.015 µg/mL (≈ 0.0404 µM); MIC (Escherichia coli LL 311): 0.03 µg/mL (≈ 0.0808 µM); MIC [37]: 1 µg/mL (≈ 2.69 µM); MIC [38]: 1 µg/mL (≈ 2.69 µM); MIC [39]: 0.25 µg/mL (≈ 0.673 µM)
